The text below walks through data of ChEMBL document CHEMBL1151975, “Isolation, structure, and antibacterial activities of lucensimycins D-G, discovered from Streptomyces lucensis MA7349 using an antisense strategy” (2009).

Converted amounts (≈) assume the structure as drawn. The source made the active and inactive calls. The rule behind the calls is not given here.

Assay [1] concerns Candida albicans. Nature of the assay: Antimicrobial activity against Candida albicans at 250 ug/ml. The format is functional, organism-based.
The subject of assay [2] is Streptococcus pneumoniae. Kind of assay: Antimicrobial activity against Streptococcus pneumoniae CL 2883. The format is functional.
Assay [3] concerns Staphylococcus aureus. Kind of assay: Antimicrobial activity against Staphylococcus aureus EP167 at 0.5 mg/ml by two-plate assay. The format is functional, organism-based.
Assay [4] has as its system Escherichia coli. Kind of assay: Antimicrobial activity against Escherichia coli at 250 ug/ml. The format is functional, organism-based.
Assay [5] deals with Bacillus subtilis. Kind of assay: Antimicrobial activity against Bacillus subtilis at 250 ug/ml. The format is functional, organism-based.
For assay [6], the system named is Enterococcus faecalis. Nature of the assay: Antimicrobial activity against Enterococcus faecalis at 250 ug/ml. Type of assay: functional, organism-based.
The test system of assay [7] is Haemophilus influenzae. Nature of the assay: Antimicrobial activity against Haemophilus influenzae at 250 ug/ml. The format is functional, organism-based.
Assay [8] concerns Staphylococcus aureus. Nature of the assay: Antimicrobial activity against Staphylococcus aureus Smith at 250 ug/ml. Type of assay: functional, organism-based.
The subject of assay [9] is Streptomyces noursei. Kind of assay: Antimicrobial activity against Streptomyces albulus MJ202-72F3. Type of assay: functional.
Assay [10] deals with Staphylococcus aureus. Kind of assay: Antimicrobial activity against Staphylococcus aureus bearing antisense rpsD gene by two-plate assay. The format is functional.
Assay [11] relates to Staphylococcus aureus. Nature of the assay: Antimicrobial activity against Staphylococcus aureus Smith. Type of assay: functional.

Regarding `CC(=O)N[C@H](CSC[C@H]1OC(=O)[C@@]2(C1=O)C(=O)[C@@]1(C)[C@@H](C=C[C@H]3[C@H](O)[C@@H](C)[C@H](OC(C)=O)C[C@@H]31)C[C@H]2/C=C/C=C/C=C/C(=O)O)C(=O)N[C@H]1[C@@H](O[C@@H]2[C@@H](O)[C@H](O)[C@@H](O)[C@H](O)[C@@H]2O)O[C@@H](CO)[C@@H](O)[C@@H]1O`, the outcome in [1], in assay [2], in assay [4], in [5], in assay [6] and in [7] was inactive. In addition, the result in assay [8] was inactive. Moreover, the result in assay [3] was Active.
Regarding `CC(=O)N[C@H](CSC[C@@H]1OC(=O)[C@@]2(C1=O)C(=O)[C@@]1(C)[C@@H](C=C[C@H]3[C@H](O)[C@@H](C)[C@H](OC(C)=O)C[C@@H]31)C[C@H]2/C=C/C=C/C=C/C(=O)O)C(=O)N[C@H]1[C@@H](O[C@@H]2[C@@H](O)[C@H](O)[C@@H](O)[C@H](O)[C@@H]2O)O[C@@H](CO)[C@@H](O)[C@@H]1O`, the result in assay [1], in [2], in assay [4], in assay [5], in assay [6] and in [7] was inactive. In assay [8], the outcome was inactive. Besides, in [3], the outcome was Active.
`CCC(O)C(C)/C=C/C=C/C(O)CC1C=CC2CC(C)CC(C)C2C1(C)C(=O)C1=C(O)C(O)NC1=O` (stereo not drawn) [DELAMINOMYCIN A] displayed a minimal inhibitory concentration (MIC) in assay [9] of 25 µg/mL (≈ 49.8 µM).
In the case of `CCC(O)C(C)/C=C/C=C/C(O)CC1C=CC2CC(C)CC(C)C2C1(C)C(=O)C1=C(O)C(OC)NC1=O` (stereo not drawn) [DELAMINOMYCIN B], the MIC in [9] worked out at 25 µg/mL (≈ 48.5 µM).
With `CC(=O)O[C@@H]1C[C@H]2[C@@H](C=C[C@H]3C[C@@H](/C=C/C=C/C=C/C(=O)O)[C@@]4(C(=O)O[C@@H](CO)C4=O)C(=O)[C@@]32C)[C@H](O)[C@H]1C`, the result in [1], in [2], in assay [4], in assay [5], in assay [6] and in assay [7] was inactive. For the same compound, in assay [8], the outcome was inactive.
Turning to `C=C(OC(=O)[C@@H]1C(=O)[C@@]2(C)[C@@H](C=C[C@H]3[C@H](O)[C@@H](C)[C@H](OC(C)=O)C[C@@H]32)C[C@H]1/C=C/C=C/C=C/C(=O)O)C(=O)O`, the outcome in [1], in assay [2], in assay [4], in [5], in [6] and in assay [7] was inactive. In addition, the result in [8] was inactive.
In assay [9], `CCC(O)C(C)/C=C/C=C/C(O)CC1C=CC2CC(C)CC(C)C2C1(C)C(=O)C1=C(O)CNC1=O` (stereo not drawn) [DELAMINOMYCIN C] returned an MIC of 25 µg/mL (≈ 51.5 µM).
`CC(=O)N[C@H](CSC[C@@H]1OC(=O)[C@@]2(C1=O)C(=O)[C@@]1(C)[C@@H](C=C[C@H]3[C@H](O)[C@@H](C)[C@H](OC(C)=O)C[C@@H]31)C[C@H]2/C=C/C=C/C=C/C(=O)O)C(=O)O` [LUCENSIMYCIN D]: the “inhibition zone (IZ)” value in assay [10] is given as 12 mm. The compound further displayed a minimal inhibitory concentration (MIC) in [2] of 250 µg/mL (≈ 363 µM). The result in assay [8] was inactive.
Regarding `C=C1OC(=O)[C@@]2(C1=O)C(=O)[C@@]1(C)[C@@H](C=C[C@H]3[C@H](O)[C@@H](C)[C@H](OC(C)=O)C[C@@H]31)C[C@H]2/C=C/C=C/C=C/C(=O)O` [LUCENSIMYCIN A], the result in assay [1], in assay [2], in [4], in assay [5], in assay [6] and in assay [7] was inactive. In [8], the outcome was inactive. Also, the “inhibition zone (IZ)” value in assay [10] is recorded as 12 mm. For the same compound, in [3], the outcome was Active.
Take `CC(=O)N[C@H](CSC[C@H]1OC(=O)[C@@]2(C1=O)C(=O)[C@@]1(C)[C@@H](C=C[C@H]3[C@H](O)[C@@H](C)[C@H](OC(C)=O)C[C@@H]31)C[C@H]2/C=C/C=C/C=C/C(=O)O)C(=O)O` [LUCENSIMYCIN E]: in assay [10], the “inhibition zone (IZ)” value worked out at 12 mm. Further, the MIC worked out at 32 µg/mL (≈ 46.5 µM) in [11] and 8 µg/mL (≈ 11.6 µM) in [2].
